Source: patent US20070111267A1, “Method of determining efficacy of anticancer drug and determination kit therefor” (priority 2003, published 2007)
Structures can show the parent of a compound that is named as a salt.

Experiments:
p27 protein = conditions: reported in Tomoda K et al. J Biol Chem. 2002; cited from earlier work
KYO-1 = assay: Sensitivity of cell line to the tyrosine kinase inhibitor; type: cell-based, human; conditions: KYO-1 cell line
Text: KYO-1: human CML cell line. Expression of Bcr-Abl protein. Resistant to Bcr-Abl inhibitor. See Leukemia Research 9: 921-926, (1985).
(§1) One to two μM STI571 was directly added to a cell culture.

HEL = assay: as above; type: cell-based, human
Text: HEL: human erythrocytic leukemia cell line. No expression of Bcr-Abl protein. Resistant to Bcr-Abl inhibitor.
as §1

K562 = assay: as above; type: cell-based, human
Text: K562: human CML cell line. Expression of Bcr-Abl protein. Sensitive to Bcr-Abl inhibitor.
as §1

MOLM1 = assay: as above; type: cell-based, human
Text: MOLM1: human CML cell line. Expression of Bcr-Abl protein. Sensitive to Bcr-Abl inhibitor.
as §1

CMK = assay: as above; type: cell-based, human
Text: CMK: human megakaryocytic leukemia cell line. No expression of Bcr-Abl protein. Resistant to Bcr-Abl inhibitor.
as §1

MEG = assay: as above; type: cell-based, human
Text: MEG: human CML cell line. Expression of Bcr-Abl protein. Sensitive to Bcr-Abl inhibitor.
as §1

**Q.** For CCC(=C/[C@H](C)C/C=C/C(C)=C/[C@@H](C)C(=O)[C@@H](C)[C@H](O)[C@@H](C)C/C(C)=C/C(=O)O)/C=C/[C@@H]1OC(=O)C=C[C@@H]1C [leptomycin B], which “degradation of p27 protein by the Jab1 small complex” value (p27 protein) is on record?
**A.** inhibited

**Q.** For Cc1ccc(NC(=O)c2ccc(CN3CCN(C)CC3)cc2)cc1Nc1nccc(-c2cccnc2)n1 [tyrosine kinase inhibitor, imatinib mesylate], which “Sensitivity to the tyrosine kinase inhibitor” value (KYO-1) is on record?
**A.** resistant

**Q.** And the “Sensitivity to the tyrosine kinase inhibitor” value (HEL)?
**A.** resistant

**Q.** And the “Sensitivity to the tyrosine kinase inhibitor” value (K562)?
**A.** sensitive

**Q.** What about the “Sensitivity to the tyrosine kinase inhibitor” value (MOLM1) of the same compound?
**A.** sensitive

**Q.** And the “Sensitivity to the tyrosine kinase inhibitor” value (CMK)?
**A.** resistant

**Q.** And the “Sensitivity to the tyrosine kinase inhibitor” value (MEG)?
**A.** sensitive
